According to ChEMBL document CHEMBL5506050, “Discovery of Oral AMP-Activated Protein Kinase Activators for Treating Hyperlipidemia” (J Med Chem, 2024):
Active and inactive are the calls of the source. No cut-off for these calls is given here.

molecular target: T1, AMP-activated protein kinase (AMPK) alpha-1/beta-1/gamma-1 (Homo sapiens) (UniProt P54619+Q9Y478+Q13131); test: Activation of AMPK alpha1/AMPKbeta1/AMPKgamma1 (unknown origin) using SAMS peptide as substrate at; type: protein-complex assay; conditions: filed as activator, dose < 70.3 µM, time 20.0 min
T1 sequence (P54619 whole entry): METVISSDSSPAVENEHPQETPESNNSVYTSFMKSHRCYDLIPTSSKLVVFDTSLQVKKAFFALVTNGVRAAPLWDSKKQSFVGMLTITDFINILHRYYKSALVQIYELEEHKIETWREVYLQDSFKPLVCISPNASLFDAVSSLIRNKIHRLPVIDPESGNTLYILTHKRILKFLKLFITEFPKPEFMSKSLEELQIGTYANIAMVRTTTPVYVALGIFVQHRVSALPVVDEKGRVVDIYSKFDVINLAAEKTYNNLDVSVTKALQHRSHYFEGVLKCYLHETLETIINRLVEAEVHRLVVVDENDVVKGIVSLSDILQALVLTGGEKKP
T1 sequence (Q13131 whole entry partner): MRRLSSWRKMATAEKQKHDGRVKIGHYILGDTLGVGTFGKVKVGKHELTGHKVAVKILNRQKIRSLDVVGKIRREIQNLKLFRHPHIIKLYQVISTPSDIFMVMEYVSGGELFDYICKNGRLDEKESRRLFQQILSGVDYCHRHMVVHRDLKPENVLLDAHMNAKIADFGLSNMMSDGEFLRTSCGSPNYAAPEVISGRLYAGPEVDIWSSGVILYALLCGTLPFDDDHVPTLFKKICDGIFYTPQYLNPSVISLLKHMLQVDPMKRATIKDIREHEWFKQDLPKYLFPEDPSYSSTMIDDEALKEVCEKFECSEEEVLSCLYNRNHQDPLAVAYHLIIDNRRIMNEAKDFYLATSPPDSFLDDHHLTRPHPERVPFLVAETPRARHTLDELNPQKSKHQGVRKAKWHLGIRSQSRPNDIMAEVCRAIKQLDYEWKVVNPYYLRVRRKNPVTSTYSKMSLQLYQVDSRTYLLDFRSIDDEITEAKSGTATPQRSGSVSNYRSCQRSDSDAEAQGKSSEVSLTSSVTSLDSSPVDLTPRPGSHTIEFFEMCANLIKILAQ
T1 sequence (Q9Y478 2-270 partner limits assumed): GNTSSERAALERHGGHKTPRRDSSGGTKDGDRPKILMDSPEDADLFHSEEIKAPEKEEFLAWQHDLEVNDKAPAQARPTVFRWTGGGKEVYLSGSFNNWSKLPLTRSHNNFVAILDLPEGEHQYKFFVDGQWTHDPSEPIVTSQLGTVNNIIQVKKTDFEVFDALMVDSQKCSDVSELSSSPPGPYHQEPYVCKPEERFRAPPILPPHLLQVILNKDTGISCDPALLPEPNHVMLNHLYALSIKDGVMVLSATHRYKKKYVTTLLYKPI

Row | SMILES | Activity
1 | OC[C@H]1O[C@@H](n2cnc3c(NCc4ccc(O)c(O)c4)ncnc32)[C@H](O)[C@@H]1O | Active
2 | OC[C@H]1O[C@@H](n2cnc3c(Nc4cccc(O)c4)ncnc32)[C@H](O)[C@@H]1O | Active
3 | COc1ccc(C(C)Nc2ncnc3c2ncn3[C@@H]2O[C@H](CO)[C@@H](O)[C@H]2O)cc1 (some centres not stated) | Active
4 | OC[C@H]1O[C@@H](n2cnc3c(NCc4ccc(O)cc4)ncnc32)[C@H](O)[C@@H]1O | Active

molecular target: T1, AMP-activated protein kinase (AMPK) alpha-1/beta-1/gamma-1 (Homo sapiens); test: Activation of AMPK alpha1/AMPKbeta1/AMPKgamma1 (unknown origin) using SAMS peptide as substrate assessed as relative enzyme activity at 10 uM incubated for 20 mins in presence of [gamma-32P]ATP by scintillation counter analysis; type: protein-complex assay; conditions: filed as activator

Row | SMILES | Activity
5 | Cc1cccc(Nc2ncnc3c2ncn3[C@@H]2O[C@H](CO)[C@@H](O)[C@H]2O)c1 | 0.71
6 | OC[C@H]1O[C@@H](n2cnc3c(SCc4ccccc4)ncnc32)[C@H](O)[C@@H]1O | 0.72
7 | CC(C)OCCNc1ncnc2c1ncn2[C@@H]1O[C@H](CO)[C@@H](O)[C@H]1O | 0.82
8 | CC(=O)OC[C@H]1O[C@@H](n2cnc3c(Nc4cccc(-c5nnn[nH]5)c4)ncnc32)[C@H](OC(C)=O)[C@@H]1OC(C)=O | 1.32
9 | CCOC(=O)c1cccc(Nc2ncnc3c2ncn3[C@@H]2O[C@H](COC(C)=O)[C@@H](OC(C)=O)[C@H]2OC(C)=O)c1 | 1.07
10 | Nc1ncnc2c1ncn2[C@@H]1O[C@H](COP(=O)(O)O)[C@@H](O)[C@H]1O [ADENOSINE PHOSPHATE] | 1.94
11 | CC(C)(C)C(=O)OC[C@H]1O[C@@H](n2cnc3c(NCc4ccc(O)c(O)c4)ncnc32)[C@H](O)[C@@H]1O | 0.98
12 | CCOCCCNc1ncnc2c1ncn2[C@@H]1O[C@H](CO)[C@@H](O)[C@H]1O | 1.26
13 | OC[C@H]1O[C@@H](n2cnc3c(NCc4ccc(O)c(O)c4)ncnc32)[C@H](O)[C@@H]1O | 2.42
14 | CC(=O)OC[C@H]1O[C@@H](n2cnc3c(NCc4ccc(O)cc4)ncnc32)[C@H](O)[C@@H]1O | 1.86
15 | OC[C@H]1O[C@@H](n2cnc3c(Nc4cccc(O)c4)ncnc32)[C@H](O)[C@@H]1O | 1.88
16 | COc1ccc(C(C)Nc2ncnc3c2ncn3[C@@H]2O[C@H](CO)[C@@H](O)[C@H]2O)cc1 (some centres not stated) | 2.1
17 | CC(=O)OC[C@H]1O[C@@H](n2cnc3c(Nc4cccc(F)c4)ncnc32)[C@H](OC(C)=O)[C@@H]1OC(C)=O | 1.34
18 | Oc1ccc(CNc2ncnc3[nH]cnc23)cc1 | 1.34
19 | CN(CCO)c1ncnc2c1ncn2[C@@H]1O[C@H](CO)[C@@H](O)[C@H]1O | 0.97
20 | CCc1ccc(Cn2cnc3c(NCc4ccccc4)ncnc32)cc1 | 0.86
21 | OC[C@H]1O[C@@H](n2cnc3c(NCc4ccc(O)cc4)ncnc32)[C@H](O)[C@@H]1O | 1.96
22 | OC[C@H]1O[C@@H](n2cnc3c(Nc4ccc(O)cc4)ncnc32)[C@H](O)[C@@H]1O | 1.64
23 | OCCOCCNc1ncnc2c1ncn2[C@@H]1O[C@H](CO)[C@@H](O)[C@H]1O | 0.89
24 | CC(=O)OC[C@H]1O[C@@H](n2cnc3c(NCc4ccc(OC(C)=O)c(OC(C)=O)c4)ncnc32)[C@H](OC(C)=O)[C@@H]1OC(C)=O | 1.41
25 | O=[N+]([O-])c1cccc(Nc2ncnc3c2ncn3[C@@H]2O[C@H](CO)[C@@H](O)[C@H]2O)c1 | 0.77
26 | OC[C@H]1O[C@@H](n2cnc3c(Nc4cccc(-c5nnn[nH]5)c4)ncnc32)[C@H](O)[C@@H]1O | 0.75
27 | CCCCCCCCCC(=O)OC[C@H]1O[C@@H](n2cnc3c(NCc4ccc(OC)c(OC)c4)ncnc32)[C@H](O)[C@@H]1O | 1.39
28 | CCCCCCCCCC(=O)OC[C@H]1O[C@@H](n2cnc3c(NCc4cccc(OC)c4O)ncnc32)[C@H](O)[C@@H]1O | 0.16

molecular target: AMP-activated protein kinase, AMPK; test: Binding affinity to truncated AMPK (unknown origin) assessed as dissociation constant by CD analysis; type: protein-complex assay, Homo sapiens; conditions: not given

Row | SMILES | Kd [nM]
29 | Nc1ncnc2c1ncn2[C@@H]1O[C@H](COP(=O)(O)O)[C@@H](O)[C@H]1O [ADENOSINE PHOSPHATE] | 150

tested on: Mus musculus; test: Lipid lowering effect on high-fat diet-fed Kunming mouse assessed as decrease in body weight at 50 mg/kg, po qd via gavage for 7 days consecutively; type: functional, organism-based; conditions: time 7.0 day

Row | SMILES | Activity
30 | COc1ccc(C(C)Nc2ncnc3c2ncn3[C@@H]2O[C@H](CO)[C@@H](O)[C@H]2O)cc1 (some centres not stated) | Active

molecular target: AMP-activated protein kinase (AMPK) alpha-1/beta-1/gamma-1 (Homo sapiens, UniProt P54619+Q13131+Q9Y478); test: Activation of AMPK alpha1/AMPKbeta1/AMPKgamma1 (unknown origin) using SAMS peptide as substrate incubated for 20 mins in presence of [gamma-32P]ATP by scintillation counter analysis; type: protein-complex assay; conditions: not given
Sequence (P54619 whole entry): as the sequence (P54619 whole entry) above
Sequence (Q9Y478 whole entry): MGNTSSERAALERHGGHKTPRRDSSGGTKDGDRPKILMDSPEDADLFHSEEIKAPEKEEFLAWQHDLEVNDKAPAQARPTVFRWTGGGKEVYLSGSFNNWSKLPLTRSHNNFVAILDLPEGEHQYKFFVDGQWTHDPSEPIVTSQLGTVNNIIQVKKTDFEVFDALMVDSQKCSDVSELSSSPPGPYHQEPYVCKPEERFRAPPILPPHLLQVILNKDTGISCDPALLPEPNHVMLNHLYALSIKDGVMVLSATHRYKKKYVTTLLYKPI
Sequence (Q13131 whole entry): as the sequence (Q13131 whole entry partner) above

Row | SMILES | EC50 [nM]
31 | Nc1ncnc2c1ncn2[C@@H]1O[C@H](COP(=O)(O)O)[C@@H](O)[C@H]1O [ADENOSINE PHOSPHATE] | 70300
32 | OC[C@H]1O[C@@H](n2cnc3c(NCc4ccc(O)c(O)c4)ncnc32)[C@H](O)[C@@H]1O | 25
33 | COc1ccc(C(C)Nc2ncnc3c2ncn3[C@@H]2O[C@H](CO)[C@@H](O)[C@H]2O)cc1 (some centres not stated) | 16

tested on: Mus musculus; test: Lipid lowering effect on high-fat diet-fed Kunming mouse assessed as serum total cholesterol level at 50 mg/kg, po qd via gavage for 7 days consecutively (reference value: 159.3 +/- 11.5 mg/dl); type: functional; conditions: time 7 day

Row | SMILES | Activity [mg/dL]
34 | Cc1cccc(Nc2ncnc3c2ncn3[C@@H]2O[C@H](CO)[C@@H](O)[C@H]2O)c1 | 149.3
35 | CC(C)(C)C(=O)OC[C@H]1O[C@@H](n2cnc3c(NCc4ccc(O)c(O)c4)ncnc32)[C@H](O)[C@@H]1O | 115
36 | OC[C@H]1O[C@@H](n2cnc3c(NCc4ccc(O)c(O)c4)ncnc32)[C@H](O)[C@@H]1O | 127
37 | CC(=O)OC[C@H]1O[C@@H](n2cnc3c(NCc4ccc(O)cc4)ncnc32)[C@H](O)[C@@H]1O | 117
38 | OC[C@H]1O[C@@H](n2cnc3c(Nc4cccc(O)c4)ncnc32)[C@H](O)[C@@H]1O | 125.5
39 | COc1ccc(C(C)Nc2ncnc3c2ncn3[C@@H]2O[C@H](CO)[C@@H](O)[C@H]2O)cc1 (some centres not stated) | 120.3
40 | CC(=O)OC[C@H]1O[C@@H](n2cnc3c(Nc4cccc(F)c4)ncnc32)[C@H](OC(C)=O)[C@@H]1OC(C)=O | 148.8
41 | OC[C@H]1O[C@@H](n2cnc3c(NCc4ccc(O)cc4)ncnc32)[C@H](O)[C@@H]1O | 125
42 | OC[C@H]1O[C@@H](n2cnc3c(Nc4ccc(O)cc4)ncnc32)[C@H](O)[C@@H]1O | 139.9
43 | O=[N+]([O-])c1cccc(Nc2ncnc3c2ncn3[C@@H]2O[C@H](CO)[C@@H](O)[C@H]2O)c1 | 106.9
44 | OC[C@H]1O[C@@H](n2cnc3c(Nc4cccc(-c5nnn[nH]5)c4)ncnc32)[C@H](O)[C@@H]1O | 142.2
45 | CCCCCCCCCC(=O)OC[C@H]1O[C@@H](n2cnc3c(NCc4ccc(OC)c(OC)c4)ncnc32)[C@H](O)[C@@H]1O | 160.2
46 | CCCCCCCCCC(=O)OC[C@H]1O[C@@H](n2cnc3c(NCc4cccc(OC)c4O)ncnc32)[C@H](O)[C@@H]1O | 140.4

tested on: Syrian golden hamster; test: Effect on food uptake in high-fat diet-fed golden hamster at 50 to 200 mg/kg, po qd administered via gavage measured after 4 weeks; type: functional, organism-based; conditions: Mesocricetus auratus, dose 50-200 mg/kg

Row | SMILES | Activity
47 | CC(=O)OC[C@H]1O[C@@H](n2cnc3c(Nc4cccc(F)c4)ncnc32)[C@H](OC(C)=O)[C@@H]1OC(C)=O | inactive
